Common to all, as to format: cell-based
In one data set the test system is A549. As to the kind of experiment: CCK-8 cytotoxicity assay, A549. To be noted: Homo sapiens, A549, 72 h. On the procedure:
(§1) Cell viability was evaluated using the Cell Counting Kit‐8 (Beyotime, Shanghai, China) assay. Cells were seeded in 96‐well plates at a density of 2×10^3 cells to allow for attachment. After treatment with ZQJ29 (0.001, 0.01, 0.1, 10, and 25 µM) for 24, 48, and 72 h, 10 µL of CCK‐8 solution was added to each well and incubated for 1 h. The optical density values were then measured at 450 nm using a multifunctional enzyme‐linked immunosorbent assay reader (Tecan, Spark, Switzerland).

Another data set concerns HEK-293T. The data set is described as follows: CCK-8 cytotoxicity assay, HEK-293T (normal cell line). To be noted: Homo sapiens, 72 h. On the procedure:
as §1
On the technique in general: Formazan colour is commonly taken as a measure of viable cells.

The next data set deals with PANC-1. The data set is described as follows: CCK-8 cytotoxicity assay, PANC-1. The method, then:
as §1

The subject of the next data set is KP4. The data set is described as follows: CCK-8 cytotoxicity assay, KP4. On the procedure: as §1

Consider `CC1CCC2C(C)C(OCCN(C#N)CCOC3OC4OC5(C)CCC6C(C)CCC(C3C)C46OO5)OC3OC4(C)CCC1C32OO4` (stereo not shown) [ZQJ29], for which the IC50 in the data set on A549 is more than 10 µM; in the data set on HEK-293T it was more than 10 µM; in the data set with PANC-1 (Homo sapiens, PANC-1, 72 h, average of 3 parallel tests), 0.12 ± 0.03 µM; in the data set on KP4 (Homo sapiens, KP-4, KP4, as printed in the text), 0.885 ± 0.106 µM. In addition, the “increased cytotoxicity compared to OXA and DHA” value in the data set on PANC-1 (PANC-1 cells) is “≈ 100 fold”. Besides, the “enhanced cytotoxic effect compared to OXA and DHA” value in the data set with KP4 (KP4 cells) is reported as 10 fold. In the data set on KP4 (discussion, cell line not stated), the “potency of antitumor over DHA” value was 10 fold.

The IC50 is the midpoint of a concentration-inhibition curve.

Values taken from paper PMC12362764, “Novel Cyano‐Artemisinin Dimer ZQJ29 Targets PARP1 to Induce Ferroptosis in Pancreatic Cancer Treatment” (Advanced Science, 2025).
